According to ChEMBL document CHEMBL1201862, “PubChem BioAssay data set” (2004):
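Briefly, cells in 96-well plates were exposed to five compound concentrations for 48 h, and endpoints were estimated by linear interpolation. GI50 = concentration required for 50% inhibition of growth.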 The source made the active and inactive calls. No stated cut-off is given here; in the data, active = GI50 up to about 1.1 µM and inactive = higher.

Legend:
Experiment in all cases: growth of human tumour cells (NCI), 48 h
UACC-257 = test system: UACC-257
SK-MEL-28 = test system: SK-MEL-28
U-251 = test system: U-251
NCI-H23 = test system: NCI-H23
A498 = test system: A498
SF-539 = test system: SF-539
HOP-62 = test system: HOP-62
786-0 = test system: 786-0
NCI-H522 = test system: NCI-H522
MDA-N = test system: MDA-N
MCF7 = test system: MCF7
OVCAR-8 = test system: OVCAR-8
K562 = test system: K562
SF-295 = test system: SF-295
PC-3 = test system: PC-3
UACC-62 = test system: UACC-62
SN12C = test system: SN12C
KM12 = test system: KM12
SNB-19 = test system: SNB-19
SR = test system: SR

| Compound | GI50 (UACC-257) | GI50 (SK-MEL-28) | GI50 (U-251) | GI50 (NCI-H23) | GI50 (A498) | GI50 (SF-539) | GI50 (HOP-62) | GI50 (786-0) | GI50 (NCI-H522) | GI50 (MDA-N) | GI50 (MCF7) | GI50 (OVCAR-8) | GI50 (K562) | GI50 (SF-295) | GI50 (PC-3) | GI50 (UACC-62) | GI50 (SN12C) | GI50 (KM12) | GI50 (SNB-19) | GI50 (SR) |
| --- | --- | --- | --- | --- | --- | --- | --- | --- | --- | --- | --- | --- | --- | --- | --- | --- | --- | --- | --- | --- |
| CCOC(=O)/C(C[C@H]1OC(C)(C)O[C@@H]1[C@H]1COC(C)(C)O1)=N/O | > 100 µM (inactive) | > 100 µM (inactive) | > 100 µM (inactive) | > 100 µM (inactive) | > 100 µM (inactive) | > 100 µM (inactive) | > 100 µM (inactive) | > 100 µM (inactive) | > 100 µM (inactive) | > 100 µM (inactive) | > 100 µM (inactive) | > 100 µM (inactive) | > 100 µM (inactive) | > 100 µM (inactive) | > 100 µM (inactive) | > 100 µM (inactive) | > 100 µM (inactive) | > 100 µM (inactive) | > 100 µM (inactive) | – |
| CC1CCC(=O)C(C(=O)CC2CC(=O)NC(=O)C2)C1 (configuration not stated) | > 100 µM (inactive) | > 100 µM (inactive) | > 100 µM (inactive) | > 100 µM (inactive) | > 100 µM (inactive) | > 100 µM (inactive) | > 100 µM (inactive) | > 100 µM (inactive) | – | > 100 µM (inactive) | > 100 µM (inactive) | > 100 µM (inactive) | > 100 µM (inactive) | > 100 µM (inactive) | > 100 µM (inactive) | > 100 µM (inactive) | > 100 µM (inactive) | > 100 µM (inactive) | > 100 µM (inactive) | > 100 µM (inactive) |
| O=C1CC(Cc2n[nH]c3c2CCCC3)CC(=O)N1 | > 100 µM (inactive) | > 100 µM (inactive) | > 100 µM (inactive) | > 100 µM (inactive) | > 100 µM (inactive) | > 100 µM (inactive) | > 100 µM (inactive) | > 100 µM (inactive) | – | > 100 µM (inactive) | > 100 µM (inactive) | > 100 µM (inactive) | > 100 µM (inactive) | > 100 µM (inactive) | > 100 µM (inactive) | > 100 µM (inactive) | > 100 µM (inactive) | > 100 µM (inactive) | – | > 100 µM (inactive) |
| COc1ccc2cc(/C=N\NC(=O)Nc3ccc([N+](=O)[O-])cc3)ccc2c1 | 14.6 µM (inactive) | 14.6 µM (inactive) | 13.6 µM (inactive) | 11.4 µM (inactive) | – | 8.24 µM (inactive) | 14.8 µM (inactive) | 8.59 µM (inactive) | 13.5 µM (inactive) | 13 µM (inactive) | 14.4 µM (inactive) | 11.7 µM (inactive) | 14.8 µM (inactive) | 13.8 µM (inactive) | 11.8 µM (inactive) | 13.8 µM (inactive) | 12.4 µM (inactive) | 11.3 µM (inactive) | 13.2 µM (inactive) | > 10 µM (inactive) |
| COc1ccc(-c2cc(-c3ccc(Cl)cc3)n(C3OC(CO)C(O)C(O)C3O)c(=S)c2C#N)cc1 (configuration not stated) | 47.8 µM (inactive) | 72.8 µM (inactive) | 28.1 µM (inactive) | – | – | > 100 µM (inactive) | 57.8 µM (inactive) | 12.5 µM (inactive) | – | > 100 µM (inactive) | > 10 µM (inactive) | 21 µM (inactive) | > 100 µM (inactive) | > 100 µM (inactive) | > 100 µM (inactive) | > 100 µM (inactive) | > 100 µM (inactive) | 49.9 µM (inactive) | > 100 µM (inactive) | 42.9 µM (inactive) |
| Cc1noc(-c2ccc(C(=O)O)[nH]2)c1Br | > 100 µM (inactive) | > 100 µM (inactive) | 34.8 µM (inactive) | 55.6 µM (inactive) | > 100 µM (inactive) | – | 22.5 µM (inactive) | 29 µM (inactive) | 39.7 µM (inactive) | > 100 µM (inactive) | 50.1 µM (inactive) | 15.8 µM (inactive) | > 100 µM (inactive) | 28.1 µM (inactive) | > 100 µM (inactive) | 64.6 µM (inactive) | – | > 100 µM (inactive) | 37.4 µM (inactive) | – |
| C=CC1(CCC(Br)C(C)(C)Cl)CO1 (configuration not stated) | – | > 10 µM (inactive) | > 10 µM (inactive) | – | > 10 µM (inactive) | > 10 µM (inactive) | > 10 µM (inactive) | > 10 µM (inactive) | > 10 µM (inactive) | > 10 µM (inactive) | > 10 µM (inactive) | > 10 µM (inactive) | > 10 µM (inactive) | > 10 µM (inactive) | > 10 µM (inactive) | – | > 10 µM (inactive) | > 10 µM (inactive) | > 10 µM (inactive) | – |
| O=c1c2cc([N+](=O)[O-])cnc2sn1-c1ccc(Oc2ccccc2)cc1 | > 100 µM (inactive) | 22.4 µM (inactive) | 29.9 µM (inactive) | 36.4 µM (inactive) | – | 23.3 µM (inactive) | 34.2 µM (inactive) | 43.5 µM (inactive) | 4.66 µM (inactive) | 78 µM (inactive) | 35.3 µM (inactive) | 82.8 µM (inactive) | – | 31 µM (inactive) | 39.9 µM (inactive) | 41.7 µM (inactive) | > 100 µM (inactive) | 78.5 µM (inactive) | 32.6 µM (inactive) | 49.2 µM (inactive) |
| Nc1nc(=O)c2cc(NCc3ccc(C(=O)NC(CCC(=O)O)C(=O)O)cc3)ccc2[nH]1 (configuration not stated) | > 100 µM (inactive) | > 100 µM (inactive) | > 100 µM (inactive) | > 100 µM (inactive) | – | 6.65 µM (inactive) | > 100 µM (inactive) | > 100 µM (inactive) | > 100 µM (inactive) | > 100 µM (inactive) | 6.56 µM (inactive) | 68.2 µM (inactive) | > 100 µM (inactive) | 61.8 µM (inactive) | > 100 µM (inactive) | 45.9 µM (inactive) | 85.5 µM (inactive) | > 100 µM (inactive) | > 100 µM (inactive) | 23.3 µM (inactive) |
| O=C1/C(=C/c2ccccc2)CCCC1CN1CCCCC1 (configuration not stated) | 6.07 µM (inactive) | 1.97 µM (inactive) | 13.3 µM (inactive) | 4.97 µM (inactive) | 16.7 µM (inactive) | 3.12 µM (inactive) | 20.8 µM (inactive) | 1.87 µM (inactive) | 0.242 µM (active) | 2.11 µM (inactive) | 0.428 µM (active) | 2.09 µM (inactive) | – | 19.1 µM (inactive) | 11.4 µM (inactive) | 6.53 µM (inactive) | 5.9 µM (inactive) | 1.19 µM (inactive) | 15.7 µM (inactive) | – |
| CCC(=O)C1(c2ccccc2)CCN(C)CC1 | > 100 µM (inactive) | > 100 µM (inactive) | > 100 µM (inactive) | > 100 µM (inactive) | > 100 µM (inactive) | – | > 100 µM (inactive) | > 100 µM (inactive) | – | > 100 µM (inactive) | > 100 µM (inactive) | > 100 µM (inactive) | > 100 µM (inactive) | > 100 µM (inactive) | > 100 µM (inactive) | – | – | > 100 µM (inactive) | > 100 µM (inactive) | > 100 µM (inactive) |
| N/C(=N\c1ccccc1)c1ccccc1N | > 100 µM (inactive) | 19.6 µM (inactive) | > 100 µM (inactive) | > 100 µM (inactive) | > 100 µM (inactive) | – | > 100 µM (inactive) | > 100 µM (inactive) | – | > 100 µM (inactive) | > 100 µM (inactive) | > 100 µM (inactive) | > 100 µM (inactive) | > 100 µM (inactive) | > 100 µM (inactive) | > 100 µM (inactive) | – | > 100 µM (inactive) | > 100 µM (inactive) | > 100 µM (inactive) |
| COc1c(OC(C)C)c(OC(C)C)c2oc(=O)n3c2c1C(c1ccccc1-n1c(C)ccc1C)C=C3 (configuration not stated) | 45 µM (inactive) | 37.8 µM (inactive) | > 100 µM (inactive) | 34.8 µM (inactive) | 92.5 µM (inactive) | 67.5 µM (inactive) | 30.5 µM (inactive) | 80.7 µM (inactive) | 26.7 µM (inactive) | 29.2 µM (inactive) | 33 µM (inactive) | 35.3 µM (inactive) | > 100 µM (inactive) | 74.3 µM (inactive) | 14.2 µM (inactive) | 44.7 µM (inactive) | 71.9 µM (inactive) | 22.9 µM (inactive) | > 100 µM (inactive) | – |
| COc1ccc(-c2nc(O)c3ccccc3n2)cc1OC | > 100 µM (inactive) | – | 23.1 µM (inactive) | > 100 µM (inactive) | – | 37.8 µM (inactive) | 33.8 µM (inactive) | 36.1 µM (inactive) | – | > 100 µM (inactive) | > 100 µM (inactive) | 24.4 µM (inactive) | > 100 µM (inactive) | 50.8 µM (inactive) | > 100 µM (inactive) | > 100 µM (inactive) | 26.5 µM (inactive) | > 100 µM (inactive) | 31.2 µM (inactive) | > 100 µM (inactive) |
| CC(=O)O[C@@H]1[C@H](C(C)C)[C@@H](OC(C)=O)C/C(C)=C/CC[C@]2(C)O[C@@H]12 | > 100 µM (inactive) | > 100 µM (inactive) | > 100 µM (inactive) | > 100 µM (inactive) | > 100 µM (inactive) | – | > 100 µM (inactive) | > 100 µM (inactive) | > 100 µM (inactive) | > 100 µM (inactive) | > 100 µM (inactive) | > 100 µM (inactive) | > 100 µM (inactive) | > 100 µM (inactive) | > 100 µM (inactive) | > 100 µM (inactive) | > 100 µM (inactive) | > 100 µM (inactive) | > 100 µM (inactive) | – |
